In assay [1] the target is T1, FXR ligand binding domain (Homo sapiens, UniProt Q96RI1).
T1 construct: expressed in transfected cells; host or cells: HEK293 cells, transiently transfected with pCMV-BD-FXR-LBD, pFR-Luc and pRL-CMV
T1 sequence (Q96RI1 187-472 isoform Q96RI1-2): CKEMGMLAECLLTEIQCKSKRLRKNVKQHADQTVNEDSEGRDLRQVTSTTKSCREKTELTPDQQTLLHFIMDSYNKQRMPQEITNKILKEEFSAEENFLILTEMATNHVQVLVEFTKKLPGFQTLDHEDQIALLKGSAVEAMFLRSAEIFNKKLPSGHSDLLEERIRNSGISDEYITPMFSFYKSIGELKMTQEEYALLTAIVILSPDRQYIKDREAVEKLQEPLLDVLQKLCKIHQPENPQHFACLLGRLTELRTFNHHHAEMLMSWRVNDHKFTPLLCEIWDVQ
Description: Mammalian One Hybrid (M1H) assay, Gal4 promoter driven transactivation in HEK293 cells. The format is cell-based. As to conditions: Gal4-FXR-LBD luciferase reporter, 16 h. An outline of the steps:
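HEK293 cells were transiently co-transfected with Gal4-DBD fused to the human FXR LBD (aa 187-472, NM_005123), a 5×GAL4-site firefly luciferase reporter and CMV-Renilla control. Compounds were added 2-4 h post-transfection (vehicle ≤0.1%) in charcoal/dextran-stripped FBS medium for 16 h. Firefly and Renilla luciferase were read sequentially, in triplicate.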
On the technique in general: In a reporter assay the amount or activity of a reporter protein is the signal.

Assay [2] addresses T2, human FXR alpha ligand binding domain (Homo sapiens, UniProt Q96RI1).
T2 construct: made in house; host or cells: E. coli BL21(DE3), vector pDEST15
T2 sequence (Q96RI1 187-472 isoform Q96RI1-2): T1 sequence (Q96RI1 187-472 isoform Q96RI1-2)
The assay can be described thus: FRET activity assay (ligand mediated cofactor peptide interaction, LANCE). Type of assay: biochemical. As to conditions: GST-FXR-LBD / biotinylated SRC-1 peptide (676-700), read-out: F EC50. The method in brief: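 GST-tagged FXR LBD (aa 187–472, E. coli-expressed) at 20–60 ng/well with 200–600 nM biotinylated SRC-1 peptide (676–700), streptavidin-APC and Eu anti-GST in Tris pH 7.5 buffer, 1% DMSO, equilibrated 1 h dark at room temperature. TR-FRET read as 665/615 nm ratio; agonists raise signal above basal.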
In general terms: TR-FRET usually uses a lanthanide donor and a delayed reading to cut background.

For orientation: EC50 means the concentration at which the effect is half-maximal. Take `O=C(O)c1ccc2nc([C@]3(O)CC[C@@H](OCc4c(-c5ccccc5OC(F)F)noc4C4CC4)CC3)sc2c1` [Example 11-10, 2-((1s,4s)-4-((5-Cyclopropyl-3-(2-(difluoromethoxy)phenyl)isoxazol-4-yl)methoxy)-1-hydroxycyclohexyl)benzo[d]thiazole-6-carboxylic acid]: the EC50 is 1200 nM in assay [1] and 250 nM in assay [2].

On to `O=C(O)c1ccnc2ccc([C@]3(O)CC[C@@H](OCc4c(-c5c(Cl)cccc5Cl)noc4C4CC4)CC3)cc12` [Example 30, 6-((1s,4s)-4-((5-Cyclopropyl-3-(2,6-dichlorophenyl)isoxazol-4-yl)methoxy)-1-hydroxycyclohexyl)quinoline-4-carboxylic acid], for which the EC50 in assay [1] is greater than 3000 nM; in assay [2], 190 nM.

For `COCC1(OCc2c(-c3c(Cl)cccc3Cl)noc2C2CC2)C[C@H]2CC[C@@H](C1)[C@]2(O)c1nc2c(F)cc(C(=O)O)cc2s1` (single isomer, unassigned) [Example 11-41], the results for the EC50 in assay [1] and in assay [2] were 320 nM and 190 nM, respectively.

`O=C(O)c1ccc([C@]2(O)[C@@H]3CC[C@H]2C[C@H](OCc2c(-c4c(Cl)cccc4Cl)noc2C2CC2)C3)c(F)c1` [Example 11-24]: the figures for the EC50 in assay [1] and in assay [2] were 14 nM and 7.8 nM, respectively.

In the case of `O=c1nc(-c2cc(F)c3nc([C@]4(O)[C@@H]5CC[C@H]4C[C@H](OCc4c(-c6c(Cl)cccc6Cl)noc4C4CC4)C5)sc3c2)[nH]o1` [Example 36, 3-(2-((1R,3s,5S,8r)-3-((5-Cyclopropyl-3-(2,6-dichlorophenyl)isoxazol-4-yl)methoxy)-8-hydroxybicyclo[3.2.1]octan-8-yl)-4-fluorobenzo[d]thiazol-6-yl)-1,2,4-oxadiazol-5(2H)-one], the EC50 was 37 nM in assay [1] and 4.6 nM in assay [2].

Take `O=C(O)c1cccc2nc([C@]3(O)CC[C@@H](OCc4c(-c5c(Cl)cccc5Cl)noc4C4CC4)CC3)ccc12` [Example 11-44, 2-((1s,4s)-4-((5-Cyclopropyl-3-(2,6-dichlorophenyl)isoxazol-4-yl)methoxy)-1-hydroxycyclohexyl)quinoline-5-carboxylic acid]: the EC50 in assay [1] was 120 nM; in assay [2], 49 nM.

For `O=C(O)c1ccc2sc([C@]3(O)CC[C@H](OCc4c(-c5c(Cl)cccc5Cl)noc4C4CC4)CC3)nc2c1` [Example 5, 2-((1r,4r)-4-((5-Cyclopropyl-3-(2,6-dichlorophenyl)isoxazol-4-yl)methoxy)-1-hydroxycyclohexyl)benzo[d]thiazole-5-carboxylic acid], the concentration giving a half-maximal response (EC50) in assay [1] was 1900 nM; in assay [2], 620 nM.

`O=C(O)c1cc(F)c2nc([C@]3(O)[C@@H]4CC[C@H]3C[C@H](OCc3c(-c5c(Cl)c[n+]([O-])cc5Cl)noc3C3CC3)C4)sc2c1` [Example 22, 4-(4-((((1R,3s,5S,8r)-8-(6-Carboxy-4-fluorobenzo[d]thiazol-2-yl)-8-hydroxybicyclo[3.2.1]octan-3-yl)oxy)methyl)-5-cyclopropylisoxazol-3-yl)-3,5-dichloropyridine 1-oxide]: the figures for the EC50 in assay [1] and in assay [2] were 140 nM and 3.9 nM, respectively.

Turning to `O=C(O)c1c(F)cc2nc([C@]3(O)CC[C@@H](OCc4c(-c5c(Cl)cccc5Cl)noc4C4CC4)CC3)sc2c1F` [Example 14-2, 2-((1s,4s)-4-((5-Cyclopropyl-3-(2,6-dichlorophenyl)isoxazol-4-yl)methoxy)-1-hydroxycyclohexyl)-5,7-difluorobenzo[d]thiazole-6-carboxylic acid], the EC50 in assay [1] is 2700 nM; in assay [2], 32 nM.

Regarding `O=C(O)c1ccc2sc([C@]3(O)CC[C@@H](OCc4c(-c5c(Cl)cccc5Cl)noc4C4CC4)CC3)nc2c1` [Example 4, 2-((1s,4s)-4-((5-Cyclopropyl-3-(2,6-dichlorophenyl)isoxazol-4-yl)methoxy)-1-hydroxycyclohexyl)benzo[d]thiazole-5-carboxylic acid], the concentration giving a half-maximal response (EC50) in assay [1] was 100 nM; in assay [2], 21 nM.

Regarding `Cc1onc(-c2c(Cl)cccc2Cl)c1CO[C@H]1C[C@H]2CC[C@@H](C1)[C@]2(O)c1nc2ccc(C(=O)O)cc2s1` [Example 11-38, 2-((1R,3r,5S,8r)-3-((3-(2,6-Dichlorophenyl)-5-methylisoxazol-4-yl)methoxy)-8-hydroxybicyclo[3.2.1]octan-8-yl)benzo[d]thiazole-6-carboxylic acid], the EC50 amounted to 460 nM in assay [1] and 270 nM in assay [2].

In the case of `CC(C)n1nc(C(=O)O)c2ccc([C@]3(O)CC[C@@H](OCc4c(-c5c(Cl)cccc5Cl)noc4C4CC4)CC3)cc21` [Example 11-45, 6-((1s,4s)-4-((5-Cyclopropyl-3-(2,6-dichlorophenyl)isoxazol-4-yl)methoxy)-1-hydroxycyclohexyl)-1-isopropyl-1H-indazole-3-carboxylic acid], the half-maximal effective concentration (EC50) in assay [1] worked out at 140 nM; in assay [2], 7 nM.

Take `OCc1ccc([C@]2(O)CC[C@@H](OCc3c(-c4c(Cl)cccc4Cl)noc3C3CC3)CC2)c(F)c1` [Example 9-6, (1s,4s)-4-((5-Cyclopropyl-3-(2,6-dichlorophenyl)isoxazol-4-yl)methoxy)-1-(2-fluoro-4-(hydroxymethyl)phenyl)cyclohexanol]: the EC50 was found to be 320 nM in assay [1] and 220 nM in assay [2].

`O=C(O)c1cc(F)c2nc([C@]3(O)CC[C@@H](OCc4c(-c5ccccc5OC(F)F)noc4C4CC4)CC3)sc2c1` [Example 11-7, 2-((1s,4s)-4-((5-Cyclopropyl-3-(2-(difluoromethoxy)phenyl)isoxazol-4-yl)methoxy)-1-hydroxycyclohexyl)-4-fluorobenzo[d]thiazole-6-carboxylic acid]: the EC50 in assay [1] came out at 1300 nM; in assay [2], 150 nM.

Turning to `CC(C)(O)c1cc(F)c2nc([C@]3(O)CC[C@@H](OCc4c(-c5c(Cl)cncc5Cl)noc4C4CC4)CC3)sc2c1` [Example 20, (1s,4s)-4-((5-Cyclopropyl-3-(3,5-dichloropyridin-4-yl)isoxazol-4-yl)methoxy)-1-(4-fluoro-6-(2-hydroxypropan-2-yl)benzo[d]thiazol-2-yl)cyclohexanol], the figures for the concentration for a half-maximal effect (EC50) in assay [1] and in assay [2] were 200 nM and 150 nM, respectively.

With `CC(C)c1onc(-c2c(Cl)cccc2Cl)c1CO[C@@H]1C[C@H]2CC[C@@H](C1)[C@]2(O)c1nc2c(F)cc(C(=O)O)cc2s1` [Example 11-51, 2-((1R,3s,5S,8r)-3-((3-(2,6-Dichlorophenyl)-5-isopropylisoxazol-4-yl)methoxy)-8-hydroxybicyclo[3.2.1]octan-8-yl)-4-fluorobenzo[d]thiazole-6-carboxylic acid], the 50% effective concentration (EC50) in assay [1] came to 0.62 nM; in assay [2], 3.7 nM.

For `O=C(O)c1cc2sc([C@]3(O)CC[C@@H](OCc4c(-c5ccccc5OC(F)F)noc4C4CC4)CC3)nc2cc1F` [Example 11-19, 2-((1s,4s)-4-((5-Cyclopropyl-3-(2-(difluoromethoxy)phenyl)isoxazol-4-yl)methoxy)-1-hydroxycyclohexyl)-5-fluorobenzo[d]thiazole-6-carboxylic acid], the EC50 in assay [1] stood at 2500 nM; in assay [2], 570 nM.

For `O=C(O)c1ccc2nc([C@]3(O)CC[C@@H](OCc4c(C5CCC6(CC5)CC6)noc4C4CC4)CC3)sc2c1` [Example 11-3, 2-((1s,4s)-4-((5-Cyclopropyl-3-(spiro[2.5]octan-6-yl)isoxazol-4-yl)methoxy)-1-hydroxycyclohexyl)benzo[d]thiazole-6-carboxylic acid], the values for the EC50 in assay [1] and in assay [2] were 2100 nM and 1300 nM, respectively.

As for `NC(=O)c1cc(F)c2nc([C@]3(O)CC[C@@H](OCc4c(-c5c(Cl)cncc5Cl)noc4C4CC4)CC3)sc2c1` [Example 18, 2-((1s,4s)-4-((5-Cyclopropyl-3-(3,5-dichloropyridin-4-yl)isoxazol-4-yl)methoxy)-1-hydroxycyclohexyl)-4-fluorobenzo[d]thiazole-6-carboxamide], the EC50 in assay [1] was found to be 440 nM; in assay [2], 98 nM.

As for `N#Cc1ccc2nc([C@]3(O)[C@@H]4CC[C@H]3C[C@H](OCc3c(-c5c(Cl)cccc5Cl)noc3C3CC3)C4)sc2c1` [Example 8-5, 2-((1R,3s,5S,8r)-3-((5-Cyclopropyl-3-(2,6-dichlorophenyl)isoxazol-4-yl)methoxy)-8-hydroxybicyclo[3.2.1]octan-8-yl)benzo[d]thiazole-6-carbonitrile], the results for the EC50 in assay [1] and in assay [2] were 58 nM and 31 nM, respectively.

On to `O[C@@]1(c2nc3ccc(Br)cc3s2)[C@@H]2CC[C@H]1C[C@H](OCc1c(-c3c(Cl)cccc3Cl)noc1C1CC1)C2` [Example 15-1, (1R,3s,5S,8r)-8-(6-Bromobenzo[d]thiazol-2-yl)-3-((5-cyclopropyl-3-(2,6-dichlorophenyl)isoxazol-4-yl)methoxy)bicyclo[3.2.1]octan-8-ol], for which the EC50 in assay [1] was determined as 77 nM; in assay [2], 37 nM.
